Cc1cccc2sc(NN)nc12
solubility (mole fraction)
Settings | 273.15 K | 278.15 K | 283.15 K | 288.15 K | 293.15 K | 298.15 K | 303.15 K | 308.15 K | 313.15 K | 318.15 K
in acetone | 0.00958 | 0.0118 | 0.0142 | 0.0172 | 0.0203 | 0.024 | 0.0285 | 0.0335 | 0.0391 | 0.0456
in ethanol | 0.000807 | 0.00103 | 0.00131 | 0.00165 | 0.00203 | 0.00252 | 0.00313 | 0.00377 | 0.0046 | 0.00555
in ethyl acetate | 0.00359 | 0.00453 | 0.00569 | 0.00696 | 0.00848 | 0.0101 | 0.0124 | 0.0147 | 0.0176 | 0.0209
in isopropanol | 0.000928 | 0.00123 | 0.00153 | 0.00191 | 0.00235 | 0.00288 | 0.00353 | 0.00429 | 0.00519 | 0.0062
in methanol | 0.000589 | 0.000758 | 0.00095 | 0.00119 | 0.00151 | 0.00185 | 0.00232 | 0.00284 | 0.00348 | 0.00422
in n-butanol | 0.00137 | 0.00168 | 0.00216 | 0.00263 | 0.00329 | 0.00403 | 0.00505 | 0.00616 | 0.00755 | 0.00904
in n-propanol | 0.00115 | 0.00143 | 0.00178 | 0.00218 | 0.00272 | 0.0033 | 0.00395 | 0.00481 | 0.00573 | 0.00696
in toluene | 0.00227 | 0.00276 | 0.00366 | 0.00473 | 0.00583 | 0.00736 | 0.00925 | 0.0116 | 0.0145 | 0.0178
in water | 7.03e-06 | 9.04e-06 | 1.18e-05 | 1.51e-05 | 1.96e-05 | 2.56e-05 | 3.21e-05 | 4.05e-05 | 5.05e-05 | 6.25e-05
